Experimental data as given in ChEMBL document CHEMBL5346971, “Discovery of the First Irreversible HDAC6 Isoform Selective Inhibitor with Potent Anti-Multiple Myeloma Activity” (J Med Chem, 2023).
Active and inactive are the calls of the source. The rule behind the calls is not given here.

Columns and labels:
[1] = tested on: RPMI-8226; test: Induction of apoptosis in human RPMI-8226 cells assessed as proportion of viable cells at 0.5 uM incubated for 24 hrs by AnnexinV-FITC/PI staining based flow cytometry (reference value: 84.71%); format: functional, cell-based
[2] = tested on: RPMI-8226; test: Induction of apoptosis in human RPMI-8226 cells assessed as proportion of necrotic cells at 0.1 uM incubated for 24 hrs by AnnexinV-FITC/PI staining based flow cytometry (reference value: 0.49%); format: functional, cell-based
[3] = target: Histone deacetylase 5 (Homo sapiens, UniProt Q9UQL6); test: Inhibition of C-terminal His-tagged human recombinant HDAC5 catalytic domain (656 to 1122 residues) expressed in baculovirus-infected Sf9 cells using Boc-Lys(trifluoroacety1)-AMC as substrate preincubated with enzyme for 1 hr followed by substrate addition and measured after 30 mins by fluorescence based analysis
[4] = tested on: RPMI-8226; test: Induction of apoptosis in human RPMI-8226 cells assessed as proportion of viable cells at 0.1 uM incubated for 24 hrs by AnnexinV-FITC/PI staining based flow cytometry (reference value: 84.71%); format: functional, cell-based
[5] = target: Histone deacetylase 9 (Homo sapiens, UniProt Q9UKV0); test: Inhibition of C-terminal His-tagged human recombinant HDAC9 (604 to 1066 residues) expressed in baclovirus-infected Sf9 cells using Boc-Lys(trifluoroacety1)-AMC as substrate preincubated with enzyme for 1 hr followed by substrate addition and measured after 30 mins by fluorescence based analysis
[6] = Effect on HDAC6 protein expression in human A549 cells assessed as change in HDAC6 protein expression at 0.4 uM incubated for 5 hrs followed by drug wash-out for 6 hrs by western blot analysis relative to control; format: functional
[7] = target: T1, Class 1 histone deacetylase (Homo sapiens) (UniProt Q13547+O15379+Q92769+Q9BY41); test: Irreversible inhibition of class 1 HDAC in human A549 cells assessed as acetyl histone H3 level at 0.4 uM incubated for 5 hrs followed by drug wash-out for 1 hr by western blot analysis relative to control; format: cell-based
[8] = target: T2, Protein deacetylase HDAC6 (Homo sapiens) (UniProt Q9UBN7); test: Irreversible inhibition of HDAC6 in human A549 cells assessed as acetyl alpha-tubulin level at 0.4 uM incubated for 5 hrs followed by drug wash-out for 1 hr by western blot analysis relative to control; format: cell-based
T2 sequence (whole entry): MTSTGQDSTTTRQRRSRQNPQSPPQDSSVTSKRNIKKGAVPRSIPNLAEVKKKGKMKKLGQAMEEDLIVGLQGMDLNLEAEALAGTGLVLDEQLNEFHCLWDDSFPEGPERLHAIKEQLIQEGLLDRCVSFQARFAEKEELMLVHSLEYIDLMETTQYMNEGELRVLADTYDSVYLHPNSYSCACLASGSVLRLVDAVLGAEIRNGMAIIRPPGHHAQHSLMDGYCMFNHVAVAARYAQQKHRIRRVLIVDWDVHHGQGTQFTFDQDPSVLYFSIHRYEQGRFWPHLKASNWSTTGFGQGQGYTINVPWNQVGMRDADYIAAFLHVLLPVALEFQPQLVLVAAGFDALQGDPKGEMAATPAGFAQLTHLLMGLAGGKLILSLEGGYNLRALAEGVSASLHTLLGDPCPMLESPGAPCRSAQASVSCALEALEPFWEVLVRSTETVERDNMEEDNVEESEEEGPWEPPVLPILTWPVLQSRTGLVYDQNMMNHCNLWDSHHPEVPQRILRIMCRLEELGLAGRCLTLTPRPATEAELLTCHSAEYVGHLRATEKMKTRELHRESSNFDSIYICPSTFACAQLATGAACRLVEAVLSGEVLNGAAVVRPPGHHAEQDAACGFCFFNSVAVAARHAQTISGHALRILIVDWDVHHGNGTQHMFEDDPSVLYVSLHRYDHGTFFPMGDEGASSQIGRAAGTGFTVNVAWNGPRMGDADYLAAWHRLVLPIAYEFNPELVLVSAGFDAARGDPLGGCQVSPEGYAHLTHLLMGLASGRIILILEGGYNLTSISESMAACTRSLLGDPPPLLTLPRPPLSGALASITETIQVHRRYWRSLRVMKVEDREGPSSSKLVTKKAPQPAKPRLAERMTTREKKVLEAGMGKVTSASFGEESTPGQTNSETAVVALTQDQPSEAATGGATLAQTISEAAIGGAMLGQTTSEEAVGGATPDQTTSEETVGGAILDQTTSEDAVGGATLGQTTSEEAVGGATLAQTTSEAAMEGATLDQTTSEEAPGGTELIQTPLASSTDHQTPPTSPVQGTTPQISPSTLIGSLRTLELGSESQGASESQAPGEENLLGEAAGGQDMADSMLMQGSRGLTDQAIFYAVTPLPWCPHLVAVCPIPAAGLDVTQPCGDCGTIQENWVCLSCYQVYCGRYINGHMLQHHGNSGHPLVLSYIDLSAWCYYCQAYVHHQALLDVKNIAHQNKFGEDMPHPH

[9] = target: T1, Class 1 histone deacetylase (Homo sapiens); test: Irreversible inhibition of class 1 HDAC in human A549 cells assessed as acetyl histone H3 level at 0.4 uM incubated for 5 hrs followed by drug wash-out for 6 hrs by western blot analysis relative to control; format: cell-based
[10] = target: T3, Histone deacetylase 11 (Homo sapiens, UniProt Q96DB2); test: Inhibition of human full length recombinant HDAC11 (1 to 347 residues) expressed in Sf9 cells using acetyl-ETDKmyr-AMC as substrate preincubated with enzyme for 1 hr followed by substrate addition and measured after 30 mins by fluorescence based analysis
T3 sequence (Q96DB2 whole entry): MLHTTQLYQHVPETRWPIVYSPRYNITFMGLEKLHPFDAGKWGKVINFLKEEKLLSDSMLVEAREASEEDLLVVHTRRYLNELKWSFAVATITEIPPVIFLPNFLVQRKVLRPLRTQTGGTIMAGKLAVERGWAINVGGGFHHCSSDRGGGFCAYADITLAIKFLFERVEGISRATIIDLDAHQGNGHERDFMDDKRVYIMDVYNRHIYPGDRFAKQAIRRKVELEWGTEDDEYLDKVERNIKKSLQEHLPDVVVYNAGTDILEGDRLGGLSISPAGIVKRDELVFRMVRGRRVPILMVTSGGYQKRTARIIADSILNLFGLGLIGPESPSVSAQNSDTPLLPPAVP

[11] = Intrinsic clearance in human liver microsomes in presence of NADPH by LC-MS/MS analysis; format: ADME, Microsome; conditions: read-out: CLH
[12] = Intrinsic clearance in rat liver microsomes in presence of NADPH by LC-MS/MS analysis; format: ADME, Microsome; conditions: read-out: CLH
[13] = tested on: MM1.S; test: Antiproliferative activity against human MM1.S cells assessed as inhibition of cell proliferation incubated for 48 hrs by CCK8 assay; format: functional, cell-based
[14] = Metabolic stability of the compound in rat liver microsomes assessed as parent compound remaining measured after 60 mins in presence of NADPH by LC-MS/MS analysis; format: ADME, Microsome; conditions: read-out: Stability
[15] = tested on: RPMI-8226; test: Induction of cell cycle arrest in human RPMI-8226 cells assessed as proportion of cells at G1 phase at 0.1 uM incubated for 24 hrs by PI staining based flow cytometry (reference value: 33.5%); format: functional
[16] = tested on: RPMI-8226; test: Antitumor activity against human RPMI-8226 cells xenografted in NCG mouse assessed as T/C ratio at 10 ug administered intratumorally every 2 days by vernier caliper analysis; format: functional; conditions: dose 10 µg; route it(Intratumoral)

T1 sequence (O15379 whole entry, looked up): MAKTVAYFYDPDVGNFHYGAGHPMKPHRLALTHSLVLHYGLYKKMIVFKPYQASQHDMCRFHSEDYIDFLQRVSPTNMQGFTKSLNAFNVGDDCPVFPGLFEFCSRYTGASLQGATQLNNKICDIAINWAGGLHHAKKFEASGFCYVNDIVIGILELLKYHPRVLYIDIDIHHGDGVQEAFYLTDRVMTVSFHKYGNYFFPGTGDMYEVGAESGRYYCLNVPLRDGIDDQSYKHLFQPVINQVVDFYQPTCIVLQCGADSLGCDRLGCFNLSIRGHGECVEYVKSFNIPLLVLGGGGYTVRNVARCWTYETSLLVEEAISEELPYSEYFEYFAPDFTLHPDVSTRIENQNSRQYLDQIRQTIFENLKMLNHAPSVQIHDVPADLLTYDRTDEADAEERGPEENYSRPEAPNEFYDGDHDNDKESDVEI
T1 sequence (Q13547 whole entry, looked up): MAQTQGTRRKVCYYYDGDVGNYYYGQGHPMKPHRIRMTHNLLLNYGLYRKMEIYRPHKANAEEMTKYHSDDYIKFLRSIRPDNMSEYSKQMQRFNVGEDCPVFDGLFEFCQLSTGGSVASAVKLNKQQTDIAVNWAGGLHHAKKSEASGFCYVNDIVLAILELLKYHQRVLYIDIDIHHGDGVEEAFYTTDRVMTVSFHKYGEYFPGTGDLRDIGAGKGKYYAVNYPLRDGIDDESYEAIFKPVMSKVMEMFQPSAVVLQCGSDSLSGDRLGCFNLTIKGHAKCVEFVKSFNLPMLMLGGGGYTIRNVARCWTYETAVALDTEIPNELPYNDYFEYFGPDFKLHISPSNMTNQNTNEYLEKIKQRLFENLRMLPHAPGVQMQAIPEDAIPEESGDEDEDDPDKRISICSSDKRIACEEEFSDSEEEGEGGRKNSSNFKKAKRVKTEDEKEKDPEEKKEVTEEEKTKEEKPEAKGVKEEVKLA
T1 sequence (Q92769 whole entry, looked up): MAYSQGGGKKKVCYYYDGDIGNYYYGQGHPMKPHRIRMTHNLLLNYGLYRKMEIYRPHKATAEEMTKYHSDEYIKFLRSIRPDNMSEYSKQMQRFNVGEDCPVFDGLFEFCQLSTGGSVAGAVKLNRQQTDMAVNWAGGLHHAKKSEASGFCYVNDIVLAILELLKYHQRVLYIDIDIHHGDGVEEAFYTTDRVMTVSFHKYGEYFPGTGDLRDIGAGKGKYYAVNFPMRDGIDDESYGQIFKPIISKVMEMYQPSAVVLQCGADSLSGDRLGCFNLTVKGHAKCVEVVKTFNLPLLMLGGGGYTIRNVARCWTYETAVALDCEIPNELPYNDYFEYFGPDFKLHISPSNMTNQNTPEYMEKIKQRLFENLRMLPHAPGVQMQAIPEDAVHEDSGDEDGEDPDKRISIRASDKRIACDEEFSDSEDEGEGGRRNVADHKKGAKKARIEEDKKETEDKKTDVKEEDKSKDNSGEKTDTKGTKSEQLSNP
T1 sequence (Q9BY41 whole entry, looked up): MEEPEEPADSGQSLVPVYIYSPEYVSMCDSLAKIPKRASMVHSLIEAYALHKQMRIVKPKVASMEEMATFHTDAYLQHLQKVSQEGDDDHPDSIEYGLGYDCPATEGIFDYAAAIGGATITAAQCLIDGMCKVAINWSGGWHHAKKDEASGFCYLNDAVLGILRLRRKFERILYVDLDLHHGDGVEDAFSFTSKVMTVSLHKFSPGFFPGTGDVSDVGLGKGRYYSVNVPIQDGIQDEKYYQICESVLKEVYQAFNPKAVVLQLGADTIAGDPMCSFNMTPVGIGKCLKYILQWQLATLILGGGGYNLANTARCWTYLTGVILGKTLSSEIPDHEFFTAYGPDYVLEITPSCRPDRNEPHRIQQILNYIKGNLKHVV
Sequence of Histone deacetylase 9 (Q9UKV0 whole entry, the tested form may be a part): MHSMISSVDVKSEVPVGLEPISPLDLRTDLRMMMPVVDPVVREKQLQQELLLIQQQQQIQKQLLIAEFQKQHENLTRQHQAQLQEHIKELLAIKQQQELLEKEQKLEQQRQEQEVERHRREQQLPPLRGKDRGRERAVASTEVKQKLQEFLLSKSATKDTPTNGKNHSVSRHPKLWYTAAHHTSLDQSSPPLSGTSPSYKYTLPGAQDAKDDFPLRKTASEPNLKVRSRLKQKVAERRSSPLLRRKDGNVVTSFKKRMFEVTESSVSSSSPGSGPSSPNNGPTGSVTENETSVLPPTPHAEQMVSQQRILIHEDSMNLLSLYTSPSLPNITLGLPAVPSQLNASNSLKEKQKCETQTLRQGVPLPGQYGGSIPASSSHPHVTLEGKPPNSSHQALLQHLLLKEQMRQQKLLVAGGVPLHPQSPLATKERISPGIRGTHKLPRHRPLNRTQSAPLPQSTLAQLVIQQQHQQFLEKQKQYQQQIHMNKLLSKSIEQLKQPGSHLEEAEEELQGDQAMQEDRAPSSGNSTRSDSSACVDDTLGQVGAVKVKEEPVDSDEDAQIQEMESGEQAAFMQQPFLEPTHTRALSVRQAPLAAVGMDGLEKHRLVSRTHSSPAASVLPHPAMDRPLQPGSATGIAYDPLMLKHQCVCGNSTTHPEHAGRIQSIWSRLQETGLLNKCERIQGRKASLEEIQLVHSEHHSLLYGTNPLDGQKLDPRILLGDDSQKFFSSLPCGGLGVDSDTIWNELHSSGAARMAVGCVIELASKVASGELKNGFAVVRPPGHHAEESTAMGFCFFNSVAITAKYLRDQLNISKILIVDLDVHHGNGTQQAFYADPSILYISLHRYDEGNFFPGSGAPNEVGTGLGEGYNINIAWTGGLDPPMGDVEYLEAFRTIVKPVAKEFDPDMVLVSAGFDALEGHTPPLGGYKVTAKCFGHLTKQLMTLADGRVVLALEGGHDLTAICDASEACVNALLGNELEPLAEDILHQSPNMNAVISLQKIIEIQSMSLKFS
Sequence of Histone deacetylase 5 (Q9UQL6 whole entry, the tested form may be a part): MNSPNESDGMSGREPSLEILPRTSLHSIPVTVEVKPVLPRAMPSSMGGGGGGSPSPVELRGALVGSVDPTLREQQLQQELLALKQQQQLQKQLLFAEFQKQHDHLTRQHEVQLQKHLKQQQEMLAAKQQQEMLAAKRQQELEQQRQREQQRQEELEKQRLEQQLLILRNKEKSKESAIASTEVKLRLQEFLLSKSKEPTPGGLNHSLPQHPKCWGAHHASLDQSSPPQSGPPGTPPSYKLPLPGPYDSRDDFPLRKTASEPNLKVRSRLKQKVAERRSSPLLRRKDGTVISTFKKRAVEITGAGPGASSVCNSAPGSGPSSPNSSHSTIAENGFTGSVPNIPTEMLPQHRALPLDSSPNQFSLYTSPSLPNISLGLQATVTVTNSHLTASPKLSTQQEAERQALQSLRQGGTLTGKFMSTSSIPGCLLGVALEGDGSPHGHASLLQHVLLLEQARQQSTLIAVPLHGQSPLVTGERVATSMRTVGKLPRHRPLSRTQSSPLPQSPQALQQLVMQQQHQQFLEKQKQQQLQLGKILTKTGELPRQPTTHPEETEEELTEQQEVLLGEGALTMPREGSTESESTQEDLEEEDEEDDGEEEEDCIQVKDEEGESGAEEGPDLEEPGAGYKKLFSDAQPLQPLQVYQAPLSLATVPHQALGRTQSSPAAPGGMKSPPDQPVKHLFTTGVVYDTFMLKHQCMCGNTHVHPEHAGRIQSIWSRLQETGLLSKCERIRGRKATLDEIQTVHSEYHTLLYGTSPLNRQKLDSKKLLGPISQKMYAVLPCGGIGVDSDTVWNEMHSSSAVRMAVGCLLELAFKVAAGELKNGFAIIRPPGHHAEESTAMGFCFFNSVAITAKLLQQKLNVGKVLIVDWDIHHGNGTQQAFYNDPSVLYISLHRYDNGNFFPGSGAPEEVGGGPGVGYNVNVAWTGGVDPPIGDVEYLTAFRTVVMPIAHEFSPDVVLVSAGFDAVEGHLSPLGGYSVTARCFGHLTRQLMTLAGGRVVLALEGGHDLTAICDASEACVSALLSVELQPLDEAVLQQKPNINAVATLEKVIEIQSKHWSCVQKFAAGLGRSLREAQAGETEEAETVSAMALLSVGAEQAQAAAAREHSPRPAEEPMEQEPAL

For O=C(NO)c1ccc(COc2no[n+]([O-])c2S(=O)(=O)c2ccccc2)cc1, which Activity [1] is on record?
The Activity was “Active”.

What about the Activity [2] of the same molecule?
Its Activity is “Active”.

What about the IC50 [3] of the same molecule?
Its IC50 is greater than 40 µM.

What about the Activity [4] of the same molecule?
Its Activity is “Active”.

What about the IC50 [5] of the same molecule?
The IC50 was greater than 40 µM.

What about the “fold change (FC)” value [6] of the same molecule?
Its value is 1.1.

What about the fold change (FC) [7] of the same molecule?
The fold change (FC) was 1.2.

What about the fold change (FC) [8] of the same molecule?
The fold change (FC) was 5.3.

And the fold change (FC) [9]?
Its fold change (FC) is 1.1.

What about the IC50 [10] of the same molecule?
Its IC50 is 5.3 µM.

And the CLint scaled [11]?
Its CLint scaled is 230 mL/min/kg.

And the CLint scaled [12]?
The CLint scaled was 270 mL/min/kg.

And the IC50 [13]?
Its IC50 is 420 nM.

And the remaining at 1 h [14]?
The remaining at 1 h was 0.6%.

What about the Activity [15] of the same molecule?
Its Activity is 28.8%.

And the T/C [16]?
Its T/C is 55%.
